Experimental data: ChEMBL document CHEMBL1151506, “Carboxyl-promoted enhancement of selectivity for the 3 adrenergic receptor. Negative charge of the sulfonic acid BMS-187413 introduces-3 binding selectivity” (Bioorg Med Chem Lett, 1997)
pEC50, pKi: −log10 of the molar value.

Experiments:
[1] = target: Beta-1 adrenergic receptor (Homo sapiens, UniProt P08588); experiment: Ability to bind to human Beta-1 adrenergic receptor using membranes of stably transfected CHO cells; type: cell-based
[2] = target: T1, Beta-3 adrenergic receptor (Homo sapiens, UniProt P13945); experiment: Ability to bind to human Beta-3 adrenergic receptor using membranes of stably transfected CHO cells; type: cell-based
Target sequence in this assay (P13945 whole entry): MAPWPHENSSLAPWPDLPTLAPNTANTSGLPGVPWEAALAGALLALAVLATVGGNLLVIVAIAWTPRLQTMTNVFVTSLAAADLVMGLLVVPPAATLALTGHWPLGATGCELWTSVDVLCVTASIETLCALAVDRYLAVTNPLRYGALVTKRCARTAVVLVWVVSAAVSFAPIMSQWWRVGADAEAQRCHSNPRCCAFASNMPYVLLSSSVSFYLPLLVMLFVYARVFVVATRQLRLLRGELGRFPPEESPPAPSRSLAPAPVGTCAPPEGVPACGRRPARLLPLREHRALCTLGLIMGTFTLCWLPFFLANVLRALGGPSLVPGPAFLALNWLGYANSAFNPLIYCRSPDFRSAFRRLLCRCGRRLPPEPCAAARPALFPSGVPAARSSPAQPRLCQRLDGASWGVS

[3] = target: Beta-2 adrenergic receptor (Homo sapiens, UniProt P07550); experiment: Ability to bind to human Beta-2 adrenergic receptor using membranes of stably transfected CHO cells; type: cell-based
[4] = target: T1, Beta-3 adrenergic receptor; experiment: Intrinsic activity as maximal cyclase activity in CHO-beta3 AR cell membranes compared to (-)-isoproterenol; type: functional, cell-based
Target sequence in this assay (P13945 whole entry, looked up): as the sequence (P13945 whole entry) above

[5] = target: T1, Beta-3 adrenergic receptor; experiment: Effective concentration for stimulation of adenylyl cyclase activity in CHO-beta3 AR expressing cell membranes; type: functional
Target sequence in this assay (P13945 whole entry): as above

[6] = target: Adrenergic receptor beta; ADRB1 & ADRB3 (Homo sapiens) (UniProt P08588+P13945); experiment: Binding selectivity ratio for beta 3 over beta 1 AR (S beta3/beta1); type: protein assay
[7] = target: Beta-2 adrenergic receptor and beta-3 adrenergic receptor (Homo sapiens) (UniProt P07550+P13945); experiment: Binding selectivity ratio for beta 3 over beta 2 AR (S beta3/beta2); type: protein assay

Sequence of Adrenergic receptor beta; ADRB1 & ADRB3 (Homo sapiens) (P08588 whole entry, looked up): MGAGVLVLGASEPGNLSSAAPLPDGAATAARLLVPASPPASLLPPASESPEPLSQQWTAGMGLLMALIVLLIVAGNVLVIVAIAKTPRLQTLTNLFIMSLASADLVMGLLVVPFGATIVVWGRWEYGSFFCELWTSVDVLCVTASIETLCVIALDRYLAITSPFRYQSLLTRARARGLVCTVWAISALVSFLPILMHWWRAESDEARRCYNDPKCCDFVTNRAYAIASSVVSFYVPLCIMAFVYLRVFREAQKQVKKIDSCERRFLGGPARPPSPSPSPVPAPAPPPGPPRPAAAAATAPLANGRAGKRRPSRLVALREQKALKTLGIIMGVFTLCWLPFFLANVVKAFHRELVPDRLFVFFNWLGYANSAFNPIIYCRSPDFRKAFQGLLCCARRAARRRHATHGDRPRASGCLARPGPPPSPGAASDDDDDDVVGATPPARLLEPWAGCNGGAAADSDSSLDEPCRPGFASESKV
Sequence of Adrenergic receptor beta; ADRB1 & ADRB3 (Homo sapiens) (P13945 whole entry, looked up): as the sequence (P13945 whole entry) above
Sequence of Beta-1 adrenergic receptor (P08588 whole entry): as the sequence (P08588 whole entry, looked up) above
Sequence of Beta-2 adrenergic receptor (P07550 whole entry): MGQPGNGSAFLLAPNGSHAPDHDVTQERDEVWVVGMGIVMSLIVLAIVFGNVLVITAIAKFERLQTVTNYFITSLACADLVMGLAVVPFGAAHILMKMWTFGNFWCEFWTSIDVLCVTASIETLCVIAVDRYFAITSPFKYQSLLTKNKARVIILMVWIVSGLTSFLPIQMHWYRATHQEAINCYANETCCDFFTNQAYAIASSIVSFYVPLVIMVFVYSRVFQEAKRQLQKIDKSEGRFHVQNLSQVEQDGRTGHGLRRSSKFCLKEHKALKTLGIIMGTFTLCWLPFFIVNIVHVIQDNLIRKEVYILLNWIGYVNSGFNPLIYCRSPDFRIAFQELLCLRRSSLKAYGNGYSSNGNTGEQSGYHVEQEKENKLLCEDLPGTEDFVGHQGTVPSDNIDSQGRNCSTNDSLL

SMILES	pKi [1]	pKi [2]	pKi [3]	Activity [4]	pEC50 [5]	Selectivity [6]	Selectivity [7]
C[C@H](Cc1ccc(OCP(=O)(O)O)cc1)NC[C@H](O)c1cccc(Cl)c1	< 4.00	4.26	4.40	0.53	5.58	> 1.8	0.72
C[C@H](Cc1ccc(OCC(N)=O)cc1)NC[C@H](O)c1cccc(Cl)c1	6.23	5.43	6.77	0.6	5.79	0.16	0.046
C[C@H](Cc1ccc(OCP(C)(=O)O)cc1)NC[C@H](O)c1cccc(Cl)c1	3.85	4.70	4.13			7	3.7
C[C@H](Cc1ccc(OCS(=O)(=O)O)cc1)NC[C@H](O)c1cccc(Cl)c1	5.12	6.09	5.65	0.57	7.22	9.4	2.8
C[C@H](Cc1ccc(OCC(=O)NO)cc1)NC[C@H](O)c1cccc(Cl)c1	6.51	5.71	6.95	0.66	5.79	0.16	0.057
C[C@H](Cc1ccc(OCC(=O)O)cc1)NC[C@H](O)c1cccc(Cl)c1				0.67			
C[C@H](Cc1ccc(OCCO)cc1)NC[C@H](O)c1cccc(Cl)c1	5.90	5.67	6.59	0.77	6.12	0.58	0.12
CC(C)OP(=O)(O)COc1ccc(C[C@@H](C)NC[C@H](O)c2cccc(Cl)c2)cc1	3.86	4.73	4.37	0.59	6.21	7.4	2.3
COC(=O)COc1ccc(C[C@@H](C)NC[C@H](O)c2cccc(Cl)c2)cc1	6.77	5.94	8.49	0.69	6.38	0.15	0.0028
C[C@H](Cc1ccc(OC(C(=O)O)C(=O)O)cc1)NC[C@H](O)c1cccc(Cl)c1	3.61	4.95	4.77			22	1.5
